The nature of the data set: A: acetonitrile + 0.1% formic acid + 10 mM ammonium formate; B: 5% water + 95% acetonitrile + 0.1% formic acid + 10 mM ammonium formate; gradient (min/%B) 0/10 2/10 22/100 27/100 27.1/10. The conditions noted are these: stereoisomer not certain.

In the case of `NC(=O)CCCCC1CCSS1` (racemic) [DL-6,8-Thioctamide], the LC retention time turned out to be 0.473 min.

Take `C=C(OP(=O)(O)O)C(=O)O` [Phospho(enol)pyruvic Acid]: the LC retention time came to 7.08 min.

Turning to `Nc1ccnc(=O)[nH]1` [Cytosine], the LC retention time amounted to 3.35 min.

Consider `OCC(O)C(O)C(OC1OC(CO)C(O)C(O)C1O)C(O)CO` (stereo not drawn) [Maltitol], for which the LC retention time turned out to be 6.59 min. Under `CCOC(=O)N1CCC(=C2c3ccc(Cl)cc3CCc3cccnc32)CC1` [Loratadine] stands 0.433 min. To `CC(C)Oc1ccc2c(=O)c(-c3ccccc3)coc2c1` [Ipriflavone] belongs 0.767 min; to `Nc1nc2c(ncn2C2OC(CO)C(O)C2O)c(=O)[nH]1` (stereo not drawn) [Guanosine], 4.96 min.

Take `NC(=O)N1c2ccccc2C=Cc2ccccc21` [Carbamazepine]: the LC retention time came to 0.469 min. Under `Cc1ncc(CO)c(C(=O)O)c1O` [4-Pyridoxic acid] stands 0.875 min. To `O=c1cc(CO)occ1O` [Kojic acid] belongs 1.22 min.

Take `Cn1c(=O)[nH]c(=O)c2[nH]cnc21` [3-Methylxanthine]: the LC retention time is 1.15 min. To `CC12CCC(=O)C=C1CCC1C2C(O)CC2(C)C1CCC2(O)C(=O)CO` (stereo not drawn) [Hydrocortisone] belongs 0.479 min; to `O=c1ccn(C2OC(COP(=O)(O)OP(=O)(O)O)C(O)C2O)c(=O)[nH]1` (stereo not drawn) [Uridine 5'-diphosphate], 8.14 min; to `NCCC(=O)NC(Cc1cnc[nH]1)C(=O)O` [L-Carnosine], 7.75 min. As for `Cc1c[nH]c(=O)[nH]c1=O` [Thymine], the LC retention time came out at 0.793 min. To `Nc1nc2c(ncn2C2CC(O)C(CO)O2)c(=O)[nH]1` (stereo not drawn) [2'-Deoxyguanosine] belongs 4.06 min.

`CN=C(NC#N)NCCSCc1nc[nH]c1C` [Cimetidine]: the LC retention time is 2.59 min.

Consider `Cc1ncc(COP(=O)(O)O)c(C=O)c1O` [Pyridoxal 5'-phosphate], for which the LC retention time came to 5.97 min. For the molecule `CCCCC1=NC2(CCCC2)C(=O)N1Cc1ccc(-c2ccccc2-c2nn[nH]n2)cc1` [Irbesartan], the LC retention time was found to be 0.475 min.

Regarding `Cn1c[n+](C2OC(CO)C(O)C2O)c2nc(N)nc([O-])c21` (stereo not drawn) [7-Methylguanosine], the LC retention time is 5.34 min. Under `NC(N)=NCCCC[C@H](N)C(=O)O` [L-Homoarginine] stands 7.39 min; under `CC12C=CC(=O)C=C1CCC1C3CC(O)C(O)(C(=O)CO)C3(C)CC(O)C12F` (stereo not drawn) [Triamcinolone], 0.499 min. To `CC(=O)Oc1cc(C)c(OC(C)=O)c2ccccc12` [Vitamin K4] belongs 0.412 min; to `CC(C)C[C@H](N)C(=O)N[C@@H](C)C(=O)O` [L-Leucyl-L-alanine], 5.82 min; to `Cc1cn(C2OC(CO)C(O)C2O)c(=O)[nH]c1=O` (stereo not drawn) [5-Methyluridine], 1.78 min.

On to `O=C(O)CCCCC1SCC2NC(=O)NC21` (stereo not drawn) [Biotin], for which the LC retention time stood at 1.17 min. Turning to `Nc1ncnc2c1ncn2C1OC(CO)C(O)C1O` (stereo not drawn) [Adenosine], the LC retention time was determined as 2.08 min. Under `NCC(=O)NCC(=O)O` [Glycyl-glycine] stands 7.02 min. For the molecule `O=C(O)c1cc(=O)c2ccccc2[nH]1` [Kynurenic acid], the LC retention time came out at 3.56 min. To `COc1cc(C2Oc3cc(C4Oc5cc(O)cc(O)c5C(=O)C4O)ccc3OC2CO)ccc1O` (stereo not drawn) [Silibinin] belongs 0.474 min; to `CC(N)c1ccccc1` (stereo not drawn) [alpha-Methylbenzylamine], 2.3 min. Under `CC(C)(CO)C(O)C(=O)NCCC(=O)O` (single isomer, unassigned; (+)) [(+)-Pantothenic acid] stands 2.17 min.

Take `CC(=O)N[C@@H](CC(C)C)C(=O)O` [N-Acetyl-L-leucine]: the LC retention time worked out at 1.18 min.

Values taken from the RepoRT retention time repository.
